# Patent US20240108595A1, “COMPOSITIONS AND METHODS FOR REVERSING AGE-ASSOCIATED DENDRITIC SPINE LOSS” (UNIVERSITY OF PITTSBURGH - OF THE COMMONWEALTH SYSTEM OF …, priority 2022, published 2024)
# Experiments:
# [1] = system: Fibroblast Growth Factor Receptor 2 (FGFR2); experiment: Cerebral cortex proteomics (LC-MS) after amlexanox treatment of mice; format: in vivo, mouse; details: 15-month-old WT mice, 25 mg/kg amlexanox for 5 days, right cerebral cortex; unadjusted p value of log2 fold change=0.0012
# Description: Drug administration and animal studies. […] Treatment groups were balanced for sex.
# Sample Preparation. Tissue homogenate was obtained using a Bead Mill Fast Prep-24 (MP Biomedicals). Tissue was transferred into a Lysing Matrix D tube with 750 μl of homogenization solution (5% SDS with MS-SAFE Protease and Phosphatase Inhibitor) and homogenized at 6 m/s for 40 s. Homogenate was centrifuged at 13.2×g for 10 min, the supernatant was transferred to a microcentrifuge tube and total protein was quantified with BCA.
# 10 μg of protein from each subject was digested with trypsin at a ratio of 1:20 using S-trap micro columns (Protifi) and desalted using Pierce Peptide Desalting Spin Columns (ThermoFisher Scientific). […]
# Peptide Data Analysis. Raw data files were analyzed with Proteome Discoverer (ThermoFisher Scientific) and searched against the mouse SwissProt database using Sequest HT (missed cleavages=2; minimum peptide length=6; precursor mass tolerance=10 ppm; dynamic modifications: Oxidation/+15.995 Da, Acetyl/+42.011 Da, Met-loss/−131.040 Da, Met-loss+Acetyl/[…]; static modifications: Carbamidomethyl/+57.021 Da). […]
# Statistical Analysis. […] Proteins with a combined Q-value=0.01 or greater, not quantified in 100% of samples or with CV>0.3 in pooled controls were filtered out. […]
# 2860 proteins were quantified in all mice. […] Other Fibroblast Growth Factor Receptors were not quantified in our assay.
# [2] = system: mouse cerebral cortex proteome; experiment: Signed Jaccard Index: overlap of amlexanox-induced protein perturbations in mice with effects of proteins on dendritic spines in humans; format: in vivo; details: amlexanox/control log2 protein abundances in mouse cerebral cortex vs effects of each protein on density of large dendritic spines in human cohort
# Description: then the net effect of amlexanox treatment was evaluated on proteins which, in our human data, were associated with age related dendritic spine density reductions. The Signed Jaccard Index (SJI) was calculated to estimate the net overlap of amlexanox-induced protein perturbations in mice with the effects of proteins on dendritic spines in humans. The relative log2-transformed abundances for each protein in amlexanox/control groups were compared with the effects of each protein on the density of large dendritic spines extracted from the mediation analysis from our human cohort (described in Example 1) as follows:
# An SJI of 0.013 compares favorably to the mean SJI reported for all drug-disease indication pairs (absolute value=0.004), indicating it is compatible with therapeutic activity. However, the SJI of 0.013 observed was lower in magnitude than the mean SJI reported for drug-disease pairs indicated specifically for CNS disorders (absolute value=0.033).
# [3] = mouse, in vivo, ip, 100 mg/kg
# Description: Drug administration and animal studies. […] A modified tolerability score was used to estimate drug tolerability. […] Male and female 15-month-old WT mice were randomly allocated to receive either 25 mg/kg amlexanox (n=9) or equivalent volume vehicle (n=10) for 5 days. Treatment groups were balanced for sex. On day 5, mice were sacrificed, perfused with normal saline, and the right cerebral cortex was isolated and immediately frozen on dry ice for proteomics.
smiles,measurement,setting,value
"CC(C)c1ccc2oc3nc(N)c(C(=O)O)cc3c(=O)c2c1 [amlexanox, Amlexanox]",relative abundance of FGFR2 (amlexanox/control),[1],0.69
same,Signed Jaccard Index (SJI),[2],0.013
same,modified tolerability score,[3],elevated tolerability scores
